The values that follow come from paper PMC9989278, “Characterization of substrates and inhibitors of the human heterodimeric transporter 4F2hc-LAT1 using purified protein and the scintillation proximity radioligand binding assay” (Frontiers in Physiology, 2023).

For orientation: Ki means a measure of affinity in units of concentration, obtained from inhibition or displacement. In general, Kd refers to a measure of binding affinity in units of concentration. One may read the Km as the concentration of substrate that gives half-maximal velocity. Broadly, the IC50 is the concentration needed to halve the response being measured.

Like-named read-outs stand apart in the source and are kept apart here.

Test [1] deals with T1, human 4F2hc-LAT1 (Homo sapiens, UniProt Q01650).
T1 construct: Strep-tag (N); made in house; host or cells: Pichia pastoris strain KM71H
Nature of the test: Scintillation proximity radioligand binding assay (SPA), [3H]L-leucine competition on purified protein. The following applies: for Binding of [3H]L-Leucine (%), residual radioligand binding (RRB) / Binding of [3H]L-Leucine (%), residual radioligand binding: normalized to control without competitor; for Binding of [3H]L-Leucine (%), residual radioligand binding: mean of three experiments. The procedure: Purified, GDN-solubilized human 4F2hc-LAT1 was attached via the His-tag to polyvinyltolune (PVT) copper His-tag SPA beads (Perkin Elmer) and the protein-bound [^3H]L-leucine quantified using a scintillation counter (a detailed description of SPA with 4F2hc-LAT1 is given in the methodological publication by ([Kantipudi et al., 2021])). Briefly, experiments were conducted in 96-well plates and per well a reaction volume of 50 µL containing 250 µg PVT-SPA-beads, 1.75 µg 4F2hc-LAT1 protein, 2.5 μM L-leucine spiked with 0.5 µCi [^3H]L-leucine (ARC/Anawa, 100 Ci/mmol, 1 mCi/ml) plus a condition-specific substance. All components were dissolved in SPA-Buffer (100 mM BTP pH 8, 150 mM NaCl, 10% (v/v) glycerol, 0.5% (w/v) GDN). For some condition-specific substances (i.e., the thyroid hormones), 20 min sonication in a water bath at 4°C was necessary to dissolve them at 10× concentration in SPA-Buffer. Per reaction, 5 µL of a 10× stock solution of the condition-specific substance was placed in a well and diluted with 45 µL of a master mix containing the remaining components. For determining the substrate specificities (Figure 1), the twenty proteogenic L-amino acids and D-leucine were used as competitors at a final concentration of 250 µM. For determining the K D of L-leucine (Figure 2A) and K i of L-histidine (Figure 2B), homologous (L-leucine) and heterologous (L-histidine) substrate competition was applied at concentrations ranging from 0.01 to 1600 µM. […] The binding specificities of structural analogues of L-leucine (Figure 3) and L-histidine (Figure 4) were tested at a final competitor concentration of 250 µM. […] To avoid minor unspecific binding of radioactive L-leucine to the beads, the master mix was created in a specific procedure: SPA-beads were first mixed with the unlabeled L-leucine and shaken for 2 h at 4°C before adding the remaining components (protein last). For background subtraction in the bar graph experiments, a no-protein control was included using protein-free master mix (i.e., containing buffer instead of protein solution). The plate was shortly mixed by shaking and incubated at 4°C for ∼18 h before the signals were counted using a microplate scintillation counter (Trilux Microbeta, Perkin Elmer). […] Three experiments with protein from at least two different purifications were performed, each at least in triplicates.
Data were analyzed with Prism 6 (GraphPad Software). […] Each experiment was done with sample number of at least three (triplicate). Data of three independent experiments were merged by adding the normalized data to a common data set, which was used for curve fitting. For data analysis of the bar graphs, the signal of the no-protein control was subtracted from the transporter signal to obtain the net binding signal.

For test [2], the target named is T1, human 4F2hc-LAT1. The following applies: ref Kantipudi et al., 2020, cited from earlier work.
Test [3] concerns recombinant human LAT1. Also on record: method as in Napolitano et al., 2015. The conditions noted are these: proteoliposomes, ref Napolitano et al., 2015, cited from earlier work.
Where [4] appears, read: Figure 4, L-histidine analogues, competitor 250 µM.
[5] abbreviates: Figure 3, L-leucine analogues, competitor 250 µM.
[6] abbreviates: heterologous competition with [3H]L-leucine, Figure 2B, C, E, F, read-out: Ki.

T1 sequence (Q01650 whole entry): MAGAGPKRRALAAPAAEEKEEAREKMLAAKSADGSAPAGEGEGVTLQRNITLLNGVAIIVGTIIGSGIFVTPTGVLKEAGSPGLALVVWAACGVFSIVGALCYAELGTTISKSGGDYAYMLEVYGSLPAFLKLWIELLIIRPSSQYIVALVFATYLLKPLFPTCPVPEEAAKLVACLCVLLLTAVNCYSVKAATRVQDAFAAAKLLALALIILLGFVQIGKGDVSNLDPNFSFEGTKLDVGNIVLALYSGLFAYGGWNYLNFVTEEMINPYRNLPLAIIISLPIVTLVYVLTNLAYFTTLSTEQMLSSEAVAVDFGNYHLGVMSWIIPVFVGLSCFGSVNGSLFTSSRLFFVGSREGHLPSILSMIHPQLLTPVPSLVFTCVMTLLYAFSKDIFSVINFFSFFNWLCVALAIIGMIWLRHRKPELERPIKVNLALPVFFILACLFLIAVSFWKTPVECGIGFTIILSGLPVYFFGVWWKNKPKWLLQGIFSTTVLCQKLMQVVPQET
T1 sequence (P08195 102-630 partner): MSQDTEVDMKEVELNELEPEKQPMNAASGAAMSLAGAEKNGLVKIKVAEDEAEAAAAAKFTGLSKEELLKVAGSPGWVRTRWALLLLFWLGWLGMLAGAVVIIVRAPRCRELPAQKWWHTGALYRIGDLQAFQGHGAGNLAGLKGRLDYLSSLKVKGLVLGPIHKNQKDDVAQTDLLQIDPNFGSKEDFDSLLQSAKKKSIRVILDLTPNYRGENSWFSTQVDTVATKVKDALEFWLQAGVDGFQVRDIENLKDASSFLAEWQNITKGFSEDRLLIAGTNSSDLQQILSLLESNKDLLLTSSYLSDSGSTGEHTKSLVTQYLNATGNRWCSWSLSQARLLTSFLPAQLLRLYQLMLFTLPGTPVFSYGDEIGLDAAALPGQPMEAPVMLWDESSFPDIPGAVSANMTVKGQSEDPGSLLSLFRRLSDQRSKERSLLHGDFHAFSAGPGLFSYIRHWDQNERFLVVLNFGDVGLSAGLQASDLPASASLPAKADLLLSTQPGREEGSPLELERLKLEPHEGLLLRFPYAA

With `COC(=O)[C@@H](N)Cc1c[nH]cn1` [L-Histidine Methyl Ester, L-histidine-methyl ester], the “Binding of [3H]L-Leucine (%), residual radioligand binding (RRB)” value in test [1] (setting [4]) was 102%. For the same compound, the “binding / inhibition of [3H]L-leucine binding to 4F2hc-LAT1, in words” value (from here on “binding / inhibition”) in test [1] (competitor 250 µM) was “no significant binding”.
`CSCC[C@H](N)C(=O)O` [Met]: in test [1] (Figure 1, competitor 250 µM), the “Binding of [3H]L-Leucine (%), residual radioligand binding” value was found to be 36%.
Same read-out and setting: the value for `N[C@@H](CC(=O)O)C(=O)O` [Asp] was 45%.
As to `CC(C)(C)[C@H](N)C(=O)O` [L-tert-Leucine, L-tert-leucine], the “Binding of [3H]L-Leucine (%), residual radioligand binding (RRB)” value in test [1] (setting [5]) is listed as 37%; in test [1] (Figure 3, L-leucine analogues, competitor 250 µM, listed as L-tert-leucine) it was 37–45%.
Regarding `N=C(N)NCCC[C@H](N)C(=O)O` [Arg], the “Binding of [3H]L-Leucine (%), residual radioligand binding” value in test [1] (Figure 1, competitor 250 µM) stood at 68%.
Regarding `CC[C@H](N)C(=O)O` [L-2-Aminobutyric Acid, L-2-aminobutyric acid], the “Binding of [3H]L-Leucine (%), residual radioligand binding (RRB)” value in test [1] (setting [5]) is 45%; in test [1] (Figure 3, L-leucine analogues, competitor 250 µM, listed as L-2-aminobutyric acid), 37–45%.
With `Cn1cnc(C[C@H](N)C(=O)O)c1` [1-Methyl L-Histidine, 1-methyl-L-histidine], the “Binding of [3H]L-Leucine (%), residual radioligand binding (RRB)” value is 59% in test [1] (setting [4]) and 59–64% in test [1] (Figure 4, L-histidine analogues, competitor 250 µM, listed as 1-methyl-L-histidine).
On to `CCCC[C@H](N)C(=O)O` [L-Norleucine, L-norleucine], for which the “Binding of [3H]L-Leucine (%), residual radioligand binding (RRB)” value in test [1] (setting [5]) stood at 62%.
Consider `N[C@@H](CCC(=O)O)C(=O)O` [Glu], for which the “Binding of [3H]L-Leucine (%), residual radioligand binding” value in test [1] (Figure 1, competitor 250 µM) is listed as 90%.
For `N[C@@H](Cc1ccccc1)C(=O)O` [Phe, L-phenylalanine], the “Binding of [3H]L-Leucine (%), residual radioligand binding” value is on record as 29% in test [1] (Figure 1, competitor 250 µM) and 19-29% in test [1] (Figure 1, competitor 250 µM, listed as L-phenylalanine).
Regarding `N[C@@H](CO)C(=O)O` [Ser], the “Binding of [3H]L-Leucine (%), residual radioligand binding” value in test [1] (Figure 1, competitor 250 µM) is 46%.
On to `NC(=O)C[C@H](N)C(=O)O` [Asn], for which, in test [1] (Figure 1, competitor 250 µM), the “Binding of [3H]L-Leucine (%), residual radioligand binding” value amounted to 35%.
Same read-out and setting: the value for `NCC(=O)O` [Gly] was 44%.
Turning to `NCCCC[C@H](N)C(=O)O` [Lys], the “Binding of [3H]L-Leucine (%), residual radioligand binding” value in test [1] (Figure 1, competitor 250 µM) is recorded as 45%.
Take `CCC[C@H](N)C(=O)O` [L-Norvaline, L-norvaline]: the “Binding of [3H]L-Leucine (%), residual radioligand binding (RRB)” value is 32% in test [1] (setting [5]) and 32–43% in test [1] (Figure 3, L-leucine analogues, competitor 250 µM, listed as L-norvaline).
As to `C[C@H](N)C(=O)O` [Ala], the “Binding of [3H]L-Leucine (%), residual radioligand binding” value in test [1] (Figure 1, competitor 250 µM) worked out at 36%.
On the same count and under the same terms, as for `C[C@@H](O)[C@H](N)C(=O)O` [Thr], the figure is 34%; as for `N[C@@H](CS)C(=O)O` [Cys], 35%.
On to `Nc1cc(COc2c(Cl)cc(C[C@H](N)C(=O)O)cc2Cl)c2oc(-c3ccccc3)nc2c1` [JPH203, (S)-2-amino-3-(4-((5-amino-2-phenylbenzo [d]oxazol-7-yl)-methoxy)-3,5-dichlorophenyl)-propanoic acid], for which, in test [1] (heterologous competition with [3H]L-leucine, Figure 2D, read-out: Ki), the Ki was determined as 0.079 µM.
Take `CC(C)[C@H](N)C(=O)O` [L-Valine, L-valine]: the “Binding of [3H]L-Leucine (%), residual radioligand binding” value is reported as 19-29% in test [1] (Figure 1, competitor 250 µM) and 19% in test [1] (Figure 1, competitor 250 µM, listed as Val). The “Binding of [3H]L-Leucine (%), residual radioligand binding (RRB)” value in test [1] (setting [5]) came out at 27%.
On to `CC(C)C[C@@H](N)C(=O)O` [D-Leu, D-leucine], for which, in test [1] (Figure 1, competitor 250 µM), the “Binding of [3H]L-Leucine (%), residual radioligand binding” value is reported as 52%. Moreover, the “inhibition of [3H]L-leucine binding” value in test [1] (competitor 250 µM, Figure 1) was “about 50%”.
On to `CC[C@H](C)[C@H](N)C(=O)O` [L-Isoleucine, L-isoleucine], for which the “Binding of [3H]L-Leucine (%), residual radioligand binding” value in test [1] (Figure 1, competitor 250 µM) is recorded as 19-29%; in test [1] (Figure 1, competitor 250 µM, listed as Ile) it was 22%. Also, the “Binding of [3H]L-Leucine (%), residual radioligand binding (RRB)” value in test [1] (setting [5]) was determined as 28%.
As for `CC(C)C[C@H](N)C(=O)O` [L-Leucine, L-leucine], the “Binding of [3H]L-Leucine (%), residual radioligand binding” value in test [1] (Figure 1, competitor 250 µM) came out at 1%. For the same compound, the “Binding of [3H]L-Leucine (%), residual radioligand binding (RRB)” value in test [1] (setting [5]) is 1%. In addition, in test [1] (competitor 250 µM), the “binding / inhibition” value was “inhibited strongly”. The same compound displayed a Kd in test [1] (homologous competition with [3H]L-leucine, Figure 2A) of 26 µM. Also, in test [2] (P. pastoris cell uptake assay), the Km was 25 µM.
In the case of `N[C@@H](Cc1c[nH]c2ccccc12)C(=O)O` [Trp, L-tryptophan], the “Binding of [3H]L-Leucine (%), residual radioligand binding” value in test [1] (Figure 1, competitor 250 µM) is given as 21%; in test [1] (Figure 1, competitor 250 µM, listed as L-tryptophan), 19-29%.
Consider `CN[C@@H](Cc1c[nH]cn1)C(=O)O` [N-Methyl L-Histidine, N-methyl-L-histidine], for which the “Binding of [3H]L-Leucine (%), residual radioligand binding (RRB)” value in test [1] (setting [4]) worked out at 103%. Also, the “binding / inhibition” value in test [1] (competitor 250 µM) is “no significant binding”.
For the compound `NC(=O)CC[C@H](N)C(=O)O` [Gln, L-glutamine], the “Binding of [3H]L-Leucine (%), residual radioligand binding” value in test [1] (Figure 1, competitor 250 µM) came to 29%.
For `COC(=O)[C@@H](N)CC(C)C` [L-Leucine-Methyl Ester, L-leucine-methyl ester], the “Binding of [3H]L-Leucine (%), residual radioligand binding (RRB)” value in test [1] (setting [5]) was 106%. Also, the “binding / inhibition” value in test [1] (competitor 250 µM) is on record as “no significant binding”.
In the case of `Cn1cncc1C[C@H](N)C(=O)O` [3-Methyl L-Histidine, 3-methyl-L-histidine], the “Binding of [3H]L-Leucine (%), residual radioligand binding (RRB)” value was 64% in test [1] (setting [4]) and 59–64% in test [1] (Figure 4, L-histidine analogues, competitor 250 µM, listed as 3-methyl-L-histidine).
Consider `CC(C)(C)C[C@H](N)C(=O)O` [L-Neopentylglycine, L-neopentyl glycine], for which the “Binding of [3H]L-Leucine (%), residual radioligand binding (RRB)” value in test [1] (setting [5]) is given as 43%; in test [1] (Figure 3, L-leucine analogues, competitor 250 µM, listed as L-neopentyl glycine) it was 32–43%.
For `N[C@@H](Cc1ccc(O)cc1)C(=O)O` [Tyr, L-tyrosine], the “Binding of [3H]L-Leucine (%), residual radioligand binding” value in test [1] (Figure 1, competitor 250 µM) was 26%; in test [1] (Figure 1, competitor 250 µM, listed as L-tyrosine), 19-29%.
With `CN[C@@H](CC(C)C)C(=O)O` [N-Methyl-L-Leucine, N-methyl-L-leucine], the “Binding of [3H]L-Leucine (%), residual radioligand binding (RRB)” value in test [1] (setting [5]) amounted to 103%. In test [1] (competitor 250 µM), the “binding / inhibition” value is given as “no significant binding”.
In the case of `NC1(C(=O)O)CC2CCC1C2` (centres unmarked) [BCH, 2-aminobicyclo-(2,2,1)-heptane-2-carboxylic acid], the Ki in test [1] (setting [6]) is 81 µM.
As for `N[C@@H](Cc1c[nH]cn1)C(=O)O` [L-Histidine, L-histidine], in test [1] (Figure 1, competitor 250 µM), the “Binding of [3H]L-Leucine (%), residual radioligand binding” value amounted to 2%. Further, the “Binding of [3H]L-Leucine (%), residual radioligand binding (RRB)” value in test [1] (setting [4]) was found to be 1%. Besides, the “binding / inhibition” value in test [1] (competitor 250 µM) is listed as “inhibited strongly”. For the same compound, the Ki in test [1] (setting [6]) was found to be 28 µM. Moreover, in test [2] ([3H]L-leucine uptake inhibition, P. pastoris cells), the IC50 is 23 µM. Further, the Km was 24.6 µM in test [3] (external side, read-out: external Km) and 2800 µM in test [3] (internal side, read-out: internal Km).
Compound `NC(Cc1cc(I)c(Oc2cc(I)c(O)c(I)c2)c(I)c1)C(=O)O` (centres unmarked) [T4, thyroxine] came in with a Ki in test [1] of 10 µM.
